Experimental data as given in ChEMBL document CHEMBL1201862, “PubChem BioAssay data set” (2004).
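Method: 48-hour compound exposure of cells in 96-well plates, five concentrations, linear interpolation of endpoints. At the GI50, growth is halved.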 Active and inactive are the calls of the source. No stated cut-off is given here; in the data, active = GI50 up to about 1.1 µM and inactive = higher.

Assays:
Experiment in all cases: NCI-60 cell line screen, 48 h
[1] = system: Malme-3M
[2] = system: LOX IMVI
[3] = system: OVCAR-5
[4] = system: K562
[5] = system: MDA-N
[6] = system: RXF 393
[7] = system: SK-MEL-5
[8] = system: COLO 205
[9] = system: UACC-62
[10] = system: SF-295
[11] = system: ACHN
[12] = system: CCRF-CEM
[13] = system: 786-0
[14] = system: OVCAR-8
[15] = system: KM12
[16] = system: A549
[17] = system: HCT-15
[18] = system: UO-31
[19] = system: U-251
[20] = system: NCI-H226

In the case of `CCOC(=O)/C(=C\NC(C)(C)CO)c1nc2ccccc2[nH]1`, the GI50 [1] is reported as > 100 µM (inactive), the GI50 [2] is reported as > 100 µM (inactive) and the GI50 [3] is reported as > 100 µM (inactive). For the same compound, the GI50 [4] was 75 µM (inactive), the GI50 [5] was > 100 µM (inactive) and the GI50 [6] was > 100 µM (inactive). For the same compound, the GI50 [7] was 26.7 µM (inactive), the GI50 [8] was 58.9 µM (inactive) and the GI50 [9] was 43.5 µM (inactive). For the same compound, the GI50 [10] was 64.6 µM (inactive), the GI50 [11] was 27.2 µM (inactive) and the GI50 [12] was 35.6 µM (inactive). The GI50 [13] was > 100 µM (inactive), the GI50 [14] was 74.8 µM (inactive) and the GI50 [15] was 75 µM (inactive). The GI50 [16] was 86.5 µM (inactive), the GI50 [17] was 81.7 µM and the GI50 [18] was 0.426 µM (active).
In the case of `OCCOCCN1CCN(CCCN2c3ccccc3Sc3ccc(C(F)(F)F)cc32)CC1`, the GI50 [19] is reported as 12.3 µM (inactive), the GI50 [2] is reported as 3.97 µM (inactive) and the GI50 [3] is reported as 14.3 µM (inactive). The GI50 [4] was 2.79 µM (inactive), the GI50 [5] was 13 µM (inactive) and the GI50 [6] was 3.18 µM (inactive). For the same compound, the GI50 [7] was 3.22 µM (inactive), the GI50 [8] was 1.75 µM (inactive) and the GI50 [9] was 6.65 µM (inactive). The GI50 [10] was 12.9 µM (inactive), the GI50 [20] was 16.4 µM (inactive) and the GI50 [11] was 17.7 µM (inactive). The GI50 [12] was 0.337 µM (active), the GI50 [13] was 16.6 µM (inactive) and the GI50 [14] was 15.2 µM (inactive). For the same compound, the GI50 [15] was 6.7 µM (inactive), the GI50 [16] was 13.1 µM (inactive) and the GI50 [17] was 21.6 µM. The GI50 [18] was 5.74 µM (inactive).
For `CCOP(=O)(OCC)/C(C#N)=C/c1cn(C)cn1`, the GI50 [19] was > 100 µM (inactive), the GI50 [1] was > 100 µM (inactive) and the GI50 [3] was > 100 µM (inactive). The GI50 [4] was > 100 µM (inactive), the GI50 [5] was > 100 µM (inactive) and the GI50 [6] was > 100 µM (inactive). The GI50 [7] was > 10 µM (inactive), the GI50 [8] was > 100 µM (inactive) and the GI50 [9] was > 100 µM (inactive). The GI50 [10] was > 100 µM (inactive), the GI50 [20] was > 100 µM (inactive) and the GI50 [11] was > 100 µM (inactive). The GI50 [12] was > 100 µM (inactive), the GI50 [14] was > 100 µM (inactive) and the GI50 [15] was > 100 µM (inactive). For the same compound, the GI50 [16] was > 100 µM (inactive), the GI50 [17] was over 100 µM and the GI50 [18] was > 100 µM (inactive).
`CCOP(=O)(OCC)C(F)(F)Cc1cnc(C)c2c1COC(C)(C)O2` was tested, and the GI50 [19] was > 10 µM (inactive), the GI50 [1] was > 10 µM (inactive) and the GI50 [3] was > 10 µM (inactive). For the same compound, the GI50 [4] was > 10 µM (inactive), the GI50 [5] was > 10 µM (inactive) and the GI50 [6] was > 10 µM (inactive). The GI50 [7] was > 10 µM (inactive), the GI50 [8] was > 10 µM (inactive) and the GI50 [9] was > 10 µM (inactive). The GI50 [10] was > 10 µM (inactive), the GI50 [20] was > 10 µM (inactive) and the GI50 [11] was > 10 µM (inactive). For the same compound, the GI50 [12] was > 10 µM (inactive), the GI50 [13] was > 10 µM (inactive) and the GI50 [14] was > 10 µM (inactive). The GI50 [15] was > 10 µM (inactive), the GI50 [16] was > 10 µM (inactive) and the GI50 [17] was over 10 µM. For the same compound, the GI50 [18] was > 10 µM (inactive).
In the case of `O=C(O)c1cc(C(=O)O)cc(N2C(=O)c3ccccc3C2=O)c1`, the GI50 [19] is reported as > 100 µM (inactive), the GI50 [1] is reported as > 100 µM (inactive) and the GI50 [2] is reported as > 100 µM (inactive). For the same compound, the GI50 [3] was > 100 µM (inactive), the GI50 [4] was > 100 µM (inactive) and the GI50 [5] was > 100 µM (inactive). The GI50 [6] was > 100 µM (inactive), the GI50 [7] was > 100 µM (inactive) and the GI50 [8] was > 100 µM (inactive). For the same compound, the GI50 [9] was > 100 µM (inactive), the GI50 [10] was > 100 µM (inactive) and the GI50 [20] was > 100 µM (inactive). For the same compound, the GI50 [11] was > 100 µM (inactive), the GI50 [13] was > 100 µM (inactive) and the GI50 [14] was > 100 µM (inactive). The GI50 [15] was > 100 µM (inactive), the GI50 [16] was > 100 µM (inactive) and the GI50 [17] was over 100 µM. For the same compound, the GI50 [18] was > 100 µM (inactive).
`COc1ccc(C(CC2(c3ccc(OC)cc3)SCCCS2)NC(C)=O)cc1` (stereo unspecified) was tested, and the GI50 [19] was 38.8 µM (inactive), the GI50 [1] was 86.9 µM (inactive) and the GI50 [2] was 85.5 µM (inactive). The GI50 [3] was > 100 µM (inactive), the GI50 [4] was 35.4 µM (inactive) and the GI50 [5] was 61 µM (inactive). For the same compound, the GI50 [6] was 67.9 µM (inactive), the GI50 [7] was 18.4 µM (inactive) and the GI50 [8] was 25.1 µM (inactive). The GI50 [9] was > 100 µM (inactive), the GI50 [10] was 33.8 µM (inactive) and the GI50 [11] was 63 µM (inactive). For the same compound, the GI50 [12] was 21.9 µM (inactive), the GI50 [13] was > 100 µM (inactive) and the GI50 [14] was 42.3 µM (inactive). For the same compound, the GI50 [15] was 45.4 µM (inactive), the GI50 [16] was 55.8 µM (inactive) and the GI50 [17] was 37 µM. The GI50 [18] was 96.4 µM (inactive).
`CCOC(=O)C(c1c[nH]c2ccccc12)(c1c[nH]c2ccccc12)c1c[nH]c2ccccc12` was tested, and the GI50 [19] was 36.9 µM (inactive), the GI50 [1] was 30.4 µM (inactive) and the GI50 [2] was 31.9 µM (inactive). For the same compound, the GI50 [3] was 55 µM (inactive), the GI50 [4] was 12.9 µM (inactive) and the GI50 [5] was 31.9 µM (inactive). For the same compound, the GI50 [6] was 21.7 µM (inactive), the GI50 [7] was 34.4 µM (inactive) and the GI50 [8] was 15.7 µM (inactive). The GI50 [9] was 25.9 µM (inactive), the GI50 [10] was 30.4 µM (inactive) and the GI50 [11] was 37.1 µM (inactive). For the same compound, the GI50 [12] was 17.2 µM (inactive), the GI50 [13] was 44.5 µM (inactive) and the GI50 [14] was 36.2 µM (inactive). The GI50 [15] was 28.5 µM (inactive), the GI50 [16] was 30.7 µM (inactive) and the GI50 [17] was 34.7 µM. The GI50 [18] was 30.3 µM (inactive).
